US10507247B2, “Optical probes for matrix metalloproteinases” (The University Court of the University of Edinburgh, priority 2015, dated 2019)
Primed or numbered codes have the meaning given here. Where no end group is shown, it is not given here. [ ]: non-standard residue; d: D form. The star is where a group is joined. 5FAM = O=C1OC2(c3ccc(O)cc3Oc3cc(O)ccc32)c2ccc(C(=O)*)cc21; PEG2′ = PEG spacer unit (glycol linker); K(MR) = not defined here; Nle = CCCC[C@H](N)C(=O)O; Ahx = NCCCCCC(=O)O; βAla = NCCC(=O)O

Assays:
MMP [1] = assay: Probe specificity by target inhibition (FIG. 9); format: biochemical, human; conditions: probe 1 μM, 30 min, inhibitor 200 nM
Method: Probe specificity by target inhibition for probes A and probe B. Data represents the fluorescence signal provided by the probe (1 μM) after 30 min using a multiwell plate fluorimeter at excitation/emission 485/528 nm. To validate the specificity and ability of molecular probe to detect the target enzyme, probe fluorescence (initiated by cleavage) was measured in the presence of enzyme with/without inhibitor.
The enzyme assays were run in a 384-well format on a PCR opaque microplate (Thermo Scientific). All dilutions and reactions were prepared in MMP buffer (50 mM Tris, 10 mM CaCl2, 0.15M NaCl, 0.05% Brij-35, pH 7). Proteolytic activity was determined by calculating the fold change in fluorescence over background signal provided by the corresponding dilution of the probe and/or inhibitors with exogenous enzymes using a-multiwell plate fluorimeter (Synergy H1 Hybrid Reader, BioTek instruments Ltd) at excitation/emission 485/528 nm. Recombinant human MMPs (Catalytic domain MMP-1, -2, -3, -7, -8, -9, -10, -11, -12, -13 (Enzo Life Sciences) and Full-length MMP-2, -9, -12 and -13 (Merck/Millipore)) were used at 30 nM. Pro-MMP-13 (R & D Systems) was activated by incubating with 1 mM 4-aminophenylmercunc acetate (APMA) for 2 hrs at 37° C. […] For inhibition assays, enzyme and inhibitor were pre-incubated for 1 hr at 37° C. before the addition of molecular probe.

MMP [2] = assay: Activation of probe variants by MMP in vitro; format: biochemical
Method: The selectivity of the probes, together with further probes AMF-14b, SVC-030 (both defined in Table 6 below) and SVC-068 (defined in Table 4 below), to detect MMP over elastase, another proteinase relevant in lung disease, was tested and the results for all probes are shown in FIG. 2.
Variants consisting of D-amino acids at the recognition site sequence with or without blocking PEG units were also synthesised and assessed.
(§1) The enzyme assays were run in a 384-well format on a PCR opaque microplate (Thermo Scientific). All dilutions and reactions were prepared in MMP buffer (50 mM Tris, 10 mM CaCl2, 0.15M NaCl, 0.05% Brij-35, pH 7). Proteolytic activity was determined by calculating the fold change in fluorescence over background signal provided by the corresponding dilution of the probe and/or inhibitors with exogenous enzymes using a-multiwell plate fluorimeter (Synergy H1 Hybrid Reader, BioTek instruments Ltd) at excitation/emission 485/528 nm. Recombinant human MMPs (Catalytic domain MMP-1, -2, -3, -7, -8, -9, -10, -11, -12, -13 (Enzo Life Sciences) and Full-length MMP-2, -9, -12 and -13 (Merck/Millipore)) were used at 30 nM. Pro-MMP-13 (R & D Systems) was activated by incubating with 1 mM 4-aminophenylmercunc acetate (APMA) for 2 hrs at 37° C. Human neutrophil elastase (Elastase Product Company, used at 2.5 ug/ml), neutrophil lysate (lysed human neutrophils), and recombinant human Thrombin (Sigma-Aldrich, used at 5 U/ml), Plasmin (Sigma-Aldrich, used at 30 nM) and Factor Xa (Sigma-Aldrich, used at 0.5 μM) were used to identify the lead molecular probe sequences. For inhibition assays, enzyme and inhibitor were pre-incubated for 1 hr at 37° C. before the addition of molecular probe.

MMP-13 [3] = assay: Enzyme assay, fold change in probe fluorescence over background with MMP-13; format: biochemical, human; conditions: different probe scaffolds (monomer, dendrimers); MMP-13 52 kDa
Method: (§2) Enzyme specificity of the lead probes with exogenous enzymes was tested using a multiwell plate fluorimeter at excitation/emission 485/528 nm (Table 3). Recombinant human catalytic domain MMPs-1, -2, -3, -7, -8, -9, -10, -11, -12, -13 were used at 30 nM. Cleavage site for each sequence is indicated in italics.
(§3) The different compounds were also evaluated according to the fold change in fluorescent signal in presence of MMP-9 and MMP-13, and the results are shown in Table 7. From this comparison, the FRET dendrimers comprising SEQ ID NO.1 and SEQ ID NO.7 (AMF-106 and SVC-186) together with the 9Dendrimer comprising SEQ ID NO.7 (SVC-196) were chosen for further evaluation. These dendrimers are shown in FIG. 7, probe A (AMF-106), probe B (SVC-186) and probe C (SVC-196).
as §1

MMP-9 = assay: Enzyme assay, fold change in probe fluorescence over background with MMP-9; format: biochemical, human; conditions: for MMP-9 (83 kDa), fold change in fluorescent signal: different probe scaffolds (monomer, dendrimers); for MMP-9 (39.0 kDa), fold change in fluorescence over background: FRET monomers, recombinant human catalytic domain MMP at 30 nM, ex/em 485/528 nm
Method: A library of probes (listed in Table 2 below) containing FAM (Carboxyfluorescein) as the fluorophore (donor) and MethylRed (MR) as the quencher (acceptor) and a variety of peptide sequences was synthesized by manual standard solid-phase Fmoc peptide chemistry (described below).
as §2, §3, §1

[4] = tested on: MMPs-1, -2, -3, -7, -8, -9, -10, -11, -12, -13, Thrombin, Plasmin and Factor Xa; assay: Enzyme specificity of the FRET branched probes with exogenous enzymes (FIG. 8); format: biochemical, human; conditions: probe 10 μM; for selectivity for MMP-2/9: MMPs 30 nM, Thrombin 5 U/ml, Plasmin 30 nM, Factor Xa 0.5 μM
Method: (§4) FIG. 8. Enzyme specificity of the FRET branched probes A, B and C. Data represents the average fold change in fluorescence over background signal provided by probe (10 μM) with exogenous enzymes using a multiwell plate fluorimeter (Synergy H1 Hybrid Reader, BioTek instruments Ltd) at excitation/emission 485/528 nm. Recombinant human catalytic domain MMPs-1, -2, -3, -7, -8, -9, -10, -11, -12, -13 were used at 30 nM. Recombinant human Thrombin, Plasmin and Factor Xa were used at 5 U/ml, 30 nM, 0.5 μM, respectively.
(§5) Three selected probes (A: AMF-106, B: SVC-186 B, and C: SVC-196) were evaluated in vitro in a new experiment including other members of the MMP family (MMPs-1, -2, -3, -7, -8, -9, -10, -11, -12, -13) as well as Thrombin, Plasmin and Factor Xa, and the results are shown in FIG. 8. […] The plasmin cleavage site was identified and attempts to make a resistant version replacing with D-aa in these positions were unsuccessful.
as §1

Thrombin = target: T1, Thrombin (Homo sapiens, UniProt P00734); assay: Enzyme assay, fold change in probe fluorescence with Thrombin; format: biochemical; conditions: recombinant human Thrombin 5 U/ml; ex/em 485/528 nm
T1 construct: purchased Sigma-Aldrich
Method: as §2, §1

MMP-2 = assay: Enzyme assay, fold change in probe fluorescence over background with MMP-2; format: biochemical; conditions: FRET monomers; recombinant human catalytic domain MMP at 30 nM; ex/em 485/528 nm
Method: as §2, §1

MMP-12 = target: T2, MMP-12 (Homo sapiens, UniProt P39900); assay: Enzyme assay, fold change in probe fluorescence over background with MMP-12; format: biochemical; conditions: FRET monomers; recombinant human catalytic domain MMP at 30 nM; ex/em 485/528 nm
T2 construct: Recombinant human catalytic domain MMPs-1, -2, -3, -7, -8, -9, -10, -11, -12, -13 were used at 30 nM; purchased Enzo Life Sciences
Method: as §2, §1

MMP-13 [5] = target: MMP-13 (Homo sapiens, UniProt P45452); assay: Enzyme assay, fold change in probe fluorescence over background with MMP-13; format: biochemical; parameters: purchased Enzo Life Sciences (catalytic domain); Merck/Millipore (full-length); conditions: FRET monomers; recombinant human catalytic domain MMP at 30 nM; ex/em 485/528 nm
Method: as §2, §3, §1

MMP-2/9/13 in the lung = assay: Ex vivo and in vivo ovine lung and human lung tissue imaging by fCFM; conditions: lung environment
Method: All compounds have undergone biological assessment. For stability we have assessed each compound in the presence of 0.9% NaCl (Saline) or pooled lavage fluid from patients with acute lung injury and analysed by matrix-assisted laser desorption/ionization (MALDI) or fourier transform mass spectrometry (FTMS). In vitro activation was assessed on benchtop confocal in the presence of compound with lung tissue samples. For the ex vivo and in vivo ovine lung (FIG. 11) and human lung tissue experiments (FIG. 12) each compound was assessed in a control lung segment (instilled with 2 ml PBS) or a fibrotic/cancer segment, the compound was administered to the segment of interest and this was imaged by probe based fCFM.

plasmin = target: T3, plasmin (Homo sapiens, UniProt P00747); assay: Susceptibility / stability of probes to plasmin; format: biochemical
T3 construct: purchased Sigma-Aldrich
Method: as §4
Also, to reduce degradation without altering the amino acid constituents we have synthesised variants including PEG units at the amino and/or carboxy termini in order to block degradation from the ends of the peptide sequence.
as §5
as §1, with “Human neutrophil elastase (Elastase Product Company, used at 2.5 ug/ml), neutrophil lysate (lysed human neutrophils), and recombinant human Thrombin (Sigma-Aldrich, used at 5 U/ml), Plasmin (Sigma-Aldrich, used at 30 nM) and Factor Xa (Sigma-Aldrich, used at 0.5 μM) were used to identify the lead molecular probe sequences. For inhibition assays, enzyme and inhibitor were pre-incubated for 1 hr at 37° C. before the addition of molecular probe.” left out

MMP-2, sequence (P08253 with tags, fused parts or gaps DEL222-396 limits assumed): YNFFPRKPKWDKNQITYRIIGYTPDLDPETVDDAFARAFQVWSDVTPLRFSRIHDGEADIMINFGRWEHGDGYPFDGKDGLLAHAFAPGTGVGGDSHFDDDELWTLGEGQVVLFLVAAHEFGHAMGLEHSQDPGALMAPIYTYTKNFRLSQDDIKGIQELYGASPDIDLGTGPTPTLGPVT
T2 sequence (P39900 106-263 limits assumed): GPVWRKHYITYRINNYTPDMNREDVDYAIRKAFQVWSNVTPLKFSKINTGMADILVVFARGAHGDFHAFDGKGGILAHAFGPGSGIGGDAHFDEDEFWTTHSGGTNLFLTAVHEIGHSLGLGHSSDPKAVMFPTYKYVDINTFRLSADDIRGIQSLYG
T3 sequence (P00747 581-810 limits assumed): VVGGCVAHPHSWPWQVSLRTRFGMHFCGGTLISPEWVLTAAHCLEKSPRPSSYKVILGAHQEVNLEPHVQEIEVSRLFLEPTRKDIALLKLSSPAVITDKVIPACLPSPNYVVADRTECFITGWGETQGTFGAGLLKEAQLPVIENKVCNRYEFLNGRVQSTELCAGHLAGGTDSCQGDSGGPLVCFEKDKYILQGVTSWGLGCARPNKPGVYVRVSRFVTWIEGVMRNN
T3 sequence (P00747 97-580 partner limits assumed): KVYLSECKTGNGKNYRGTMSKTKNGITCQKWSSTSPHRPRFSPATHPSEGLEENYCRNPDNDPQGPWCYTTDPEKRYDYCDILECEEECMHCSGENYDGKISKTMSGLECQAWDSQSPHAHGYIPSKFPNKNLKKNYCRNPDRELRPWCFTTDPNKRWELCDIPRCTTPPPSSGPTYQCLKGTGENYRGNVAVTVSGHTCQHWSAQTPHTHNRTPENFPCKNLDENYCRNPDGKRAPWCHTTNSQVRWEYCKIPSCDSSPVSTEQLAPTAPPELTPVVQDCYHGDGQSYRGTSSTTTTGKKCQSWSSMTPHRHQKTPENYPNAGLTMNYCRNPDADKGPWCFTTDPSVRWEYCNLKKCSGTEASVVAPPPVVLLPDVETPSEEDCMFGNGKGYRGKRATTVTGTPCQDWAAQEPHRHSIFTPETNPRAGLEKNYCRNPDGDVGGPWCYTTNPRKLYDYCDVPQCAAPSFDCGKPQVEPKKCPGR

CNC(=O)[C@@H](NC(=O)[C@H](CC(C)C)[C@H](O)C(=O)NO)C(C)(C)C [Marimastat]
fluorescent intensity of probes A and B after incubation of the enzyme with inhibitor (MMP [1]): significantly reduced

Ac-PEG2-PFGNleKβA-K[K(FAM)2]-PEG2-k-PEG2-k-3 probe elements [SVC-01-198]
intensity upon activation by MMP (MMP [2]): much lower intensity

FAM-Ahx-G-P-K-G-L-K-G-3 probe elements ({5FAM-Ahx}-GPKGLKG; also: three probe elements on a scaffold) [TWB140]
MMP-13 (52 kDa), fold change in fluorescent signal (MMP-13 [3]): 1.47 | MMP-9 (83 kDa), fold change in fluorescent signal (MMP-9): 1.06

FAM-K(FAM)-PEG2-PFGNleKβA-K(FAM)-PEG2-k-PEG2-k-3 probe elements ({5FAM-K(FAM)-PEG2′}-PFG[Nle]K[βAla]-{K(FAM)-PEG2′-code k-PEG2′-code k}; also: three probe elements on a scaffold) [SVC-196]
MMP-13 (52 kDa), fold change in fluorescent signal (MMP-13 [3]): 11.80 | MMP-9 (83 kDa), fold change in fluorescent signal (MMP-9): 3.33 | signal-to-noise (fold change above the background) [4]: lower signal-to-noise | selectivity for MMP-2/9 [4]: poor selectivity

FAM-K(FAM)-PEG2-PFGNleKβA-PEG2-k-PEG2-k-3 probe elements [SVC-189]
MMP-13 (52 kDa), fold change in fluorescent signal (MMP-13 [3]): 7.11 | MMP-9 (83 kDa), fold change in fluorescent signal (MMP-9): 2.92

FAM-PEG2-P-F-G-I-K-βA-K(MR)-NH2 [AMF-24]
MMP-9 (39.0 kDa), fold change in fluorescence over background (MMP-9): 2.29 | Inflammatory mediators: Thrombin, fold change in fluorescence over background (Thrombin): 0.96 | MMP-2 (20.3 kDa), fold change in fluorescence over background (MMP-2): 1.59 | MMP-12 (20.3 kDa), fold change in fluorescence over background (MMP-12): 1.65 | MMP-13 (20.4 kDa), fold change in fluorescence over background (MMP-13 [5]): 5.05

FAM-PEG2-P-F-G-L-K-βA-K(MR)-NH2 [AMF-23]
MMP-9 (39.0 kDa), fold change in fluorescence over background (MMP-9): 2.50 | Inflammatory mediators: Thrombin, fold change in fluorescence over background (Thrombin): 0.89 | MMP-2 (20.3 kDa), fold change in fluorescence over background (MMP-2): 1.87 | MMP-12 (20.3 kDa), fold change in fluorescence over background (MMP-12): 3.03 | MMP-13 (20.4 kDa), fold change in fluorescence over background (MMP-13 [5]): 6.41

FAM-PEG2-P-F-G-M(S = O)-K-βA-K(MR)-NH2 [SVC-068]
recognition of the cleavable sequence by MMP (MMP [2]; FIG. 2): not recognised by MMP

FAM-PEG2-P-F-G-M-K-βA-K(MR)-NH2 [SVC-16]
MMP-9 (39.0 kDa), fold change in fluorescence over background (MMP-9): 5.21 | Inflammatory mediators: Thrombin, fold change in fluorescence over background (Thrombin): 0.99 | MMP-2 (20.3 kDa), fold change in fluorescence over background (MMP-2): 3.11 | MMP-12 (20.3 kDa), fold change in fluorescence over background (MMP-12): 1.88 | MMP-13 (20.4 kDa), fold change in fluorescence over background (MMP-13 [5]): 13.57

FAM-PEG2-P-F-G-Nle-K-βA-K(MR)-K-K-PEG2-PEG2-NH2 [AMF-92]
MMP-13 (52 kDa), fold change in fluorescent signal (MMP-13 [3]): 19.30 | MMP-9 (83 kDa), fold change in fluorescent signal (MMP-9): 4.75

FAM-PEG2-P-F-G-Nle-K-βA-K(MR)-NH2 [AMF-25]
MMP-9 (39.0 kDa), fold change in fluorescence over background (MMP-9): 2.02 | Inflammatory mediators: Thrombin, fold change in fluorescence over background (Thrombin): 0.96 | MMP-2 (20.3 kDa), fold change in fluorescence over background (MMP-2): 1.88 | MMP-12 (20.3 kDa), fold change in fluorescence over background (MMP-12): 1.53 | MMP-13 (20.4 kDa), fold change in fluorescence over background (MMP-13 [5]): 5.27

FAM-PEG2-PFGNleKβA-K(MR)-PEG2-k-PEG2-k-3 probe elements ({5FAM-PEG2′}-PFG[Nle]K[βAla]-{K(MR)-PEG2′-code k-PEG2′-code k}; reading uncertain; also: three probe elements on a scaffold) [SVC-186]
MMP-13 (52 kDa), fold change in fluorescent signal (MMP-13 [3]): 26.65 | MMP-9 (83 kDa), fold change in fluorescent signal (MMP-9): 6.49 | selectivity for MMP-2/9 [4]: better selectivity for MMP-2/9 | activation in the presence of MMP-2/9/13 in the lung (MMP-2/9/13 in the lung): able to activate | stability / susceptibility to plasmin (plasmin; listed as Probe B): plasmin resistant | stability / susceptibility to plasmin (plasmin; listed as SVC-01-186): stable

FAM-PEG2-PFGNleKβA-K[K(MR)2]-PEG2-k-PEG2-k-3 probe elements [SVC-195]
MMP-13 (52 kDa), fold change in fluorescent signal (MMP-13 [3]): 9.00 | MMP-9 (83 kDa), fold change in fluorescent signal (MMP-9): 4.84 | signal-to-noise ratio (MMP [2]; additional quencher per probe element): did not further improved

FAM-PEG2-PFGNleKβA-PEG2-k-PEG2-k-3 probe elements [SVC-188]
MMP-13 (52 kDa), fold change in fluorescent signal (MMP-13 [3]): 1.80 | MMP-9 (83 kDa), fold change in fluorescent signal (MMP-9): 1.41

MR-K(Ac)-PEG2-GPKGLKG-K(FAM)-PEG2-k-PEG2-k-PEG2-k-NH2 [AMF-111]
MMP-13 (52 kDa), fold change in fluorescent signal (MMP-13 [3]): 10.57 | MMP-9 (83 kDa), fold change in fluorescent signal (MMP-9): 3.66
